Source: patent publication US20200281932A1, “FORMULATIONS OF COPANLISIB” (Bayer Pharma Aktiengesellschaft, priority 2017, published 2020)
Where a name gives a salt, the structure may show the parent alone. Read-outs that look alike come from different tables or passages of the source.

Columns and labels:
[1] = Hydrolytic stability of copanlisib in aqueous solutions (HPLC); format: physicochemical; settings: water, buffer pH 7, 0.1 M hydrochloric acid and 0.1 M sodium hydroxide solution
Method: The stationary phase is an XBridge Shield HPLC column (150 mm×3.0 mm, 3.5 μm particle size). For peak separation, gradient elution with a flow rate of 0.5 mL/min is chosen using a sodium dodecyl sulfate ion pair eluent (in water with phosphoric acid) as mobile phase A, and a sodium dodecyl sulfate ion pair eluent (in acetonitrile with 20% water and phosphoric acid) as mobile phase B. The applied gradient profile contains four steps running from 40% to 50% mobile phase B within 5 min, from 50% to 65% mobile phase B within 25 min and from 65% to 100% mobile phase B within another 5 min, followed by a 10 min isocratic phase at 100% mobile phase B. The column temperature is kept at 25° C. and the injection volume is 3.0 μL. […] (flow rate of 0.5 ml/min). […] The impurity was assayed at a wavelength of 210 nm and taken into account to determine the degradation products. The different aqueous solutions (0.05% copanlisib; after addition of 50% 2-propanol, [buffer solution filtered with 0.5 μm membrane filter]) were stored at 25° C. and 70° C. for 24 h and one week. An analytical HPLC-method has been developed to determine assay and organic impurities of copanlisib as well as degradation products.

[2] = Copanlisib in patients with relapsed or refractory indolent B-cell lymphoma: adverse events; format: in vivo, human
Method: (§1) Methods: Patients with indolent B-cell non-Hodgkin lymphoma (4 subtypes: follicular (FL), marginal zone (MZL), small lymphocytic (SLL) and lymphoplasmacytoid/Waldenström macroglobulinemia (LPL-WM)) and relapsed after, or refractory to, ≥2 prior lines of treatment were eligible. […] Copanlisib (60 mg, I.V.) was intermittently administered on days 1, 8 and 15 of a 28-day cycle. The primary efficacy endpoint was objective tumor response rate (ORR) as assessed per independent radiologic review (Cheson et al., JCO 20:579, 2007).

[3] = test system: relapsed or refractory indolent B-cell lymphoma; assay: Copanlisib in patients with relapsed or refractory indolent B-cell lymphoma: tumor response; format: in vivo, human
Method: as §1

[4] = full analysis set, 60 mg I.V. on days 1, 8 and 15 of a 28-day cycle

COc1c(OCCCN2CCOCC2)ccc2c1N=C(NC(=O)c1cnc(N)nc1)N1CCN=C21 [copanlisib, 2-amino-N-[7-methoxy-8-(3-morpholin-4-ylpropoxy)-2,3-dihydroimidazo[1,2-c]quinazolin-5-yl]pyrimidine-5-carboxamide]
Hydrolytic stability in words [1]: hydrolytic instability
AE of interest: colitis ([2]; all grade): 0.7%
AE of interest: diarrhea ([2]; all grade): 18%
AE of interest: lung infection ([2]; all grade): 14%
AE of interest: neutropenia ([2]; all grade): 25%
AE of interest: pneumonitis ([2]; all grade): 7%
treatment-related AE: hypertension ([2]; all grade): 29%
treatment-related AE: transient hyperglycemia ([2]; all grade): 49%
Laboratory toxicity: alanine aminotransferase ([2]; all-grade): 23%
Laboratory toxicity: aspartate aminotransferase ([2]; all-grade): 28%
colonic perforations ([2]; full analysis set): No colonic perforations occurred
deaths (number) ([2]; full analysis set): 6
non-fatal opportunistic infections (number) ([2]; full analysis set): two
AE of interest: colitis ([2]; grade 3+): 0.7%
AE of interest: diarrhea ([2]; grade 3+): 4%
AE of interest: lung infection ([2]; grade 3+): 11%
AE of interest: neutropenia ([2]; grade 3+): 19%
AE of interest: pneumonitis ([2]; grade 3+): 1.4%
treatment-related AE: hypertension ([2]; grade 3+): 23%
treatment-related AE: transient hyperglycemia ([2]; grade 3+): 40%
Laboratory toxicity: alanine aminotransferase ([2]; grade-1): 19%
Laboratory toxicity: aspartate aminotransferase ([2]; grade-1): 25%
deaths attributed to copanlisib (number) ([2]; lung infection, respiratory failure, and a thromboembolic event): 3
Median overall survival ([3]; at the time of primary analysis): had not yet been reached
KM-estimate of median PFS ([3]; full analysis set (range 0-736)): 340 days
overall response rate (ORR) [3, 4]: 59.2%
partial response (PR) [3, 4]: 47.2%
progressive disease [3, 4]: 2.1 % of patients
stable disease [3, 4]: 29.6 % of patients

COc1c(OCCCN2CCOCC2)ccc2c1N=C(NC(=O)c1cnc(N)nc1)N1CCN=C21 [copanlisib dihydrochloride, 2-amino-N-[7-methoxy-8-(3-morpholin-4-ylpropoxy)-2,3-dihydroimidazo[1,2-c]quinazolin-5-yl]pyrimidine-5-carboxamide dihydrochloride]
Descriptive term (according to Ph. Eur./USP) (0.1M Hydrochloric acid, 25° C.): freely soluble
Descriptive term (according to Ph. Eur./USP) (Buffer (citrate) pH 3, 25° C.): freely soluble
Descriptive term (according to Ph. Eur./USP) (Buffer (citrate) pH 4, 25° C.): soluble
Descriptive term (according to Ph. Eur./USP) (Buffer (citrate) pH 5, 25° C.): very slightly soluble
Descriptive term (according to Ph. Eur./USP) (Buffer (phosphate) pH 1, 25° C.): freely soluble
Descriptive term (according to Ph. Eur./USP) (Buffer (phosphate) pH 2, 25° C.): freely soluble
Descriptive term (according to Ph. Eur./USP) (Buffer (phosphate) pH 6, 25° C.): practically insoluble
Descriptive term (according to Ph. Eur./USP) (Buffer (phosphate) pH 7, 25° C.): practically insoluble
Descriptive term (according to Ph. Eur./USP) (Water, 25° C.): freely soluble
